Type in all cases: biochemical
One experiment addresses T1, PDGFR-β kinase (Homo sapiens, UniProt P09619).
T1 construct: recombinant N-terminal 6×His-tagged PDGFR-β kinase domain construct expressed by baculovirus; 6xHis (N); made in house
Description: PDGFR-β kinase assay (33P incorporation into Poly(Glu-Tyr)). As to conditions: 500 nM test compound. The gist of the method:
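His-tagged PDGFR-β kinase domain (55 ng) with Poly(Glu-Tyr) 4:1, 30 μM ATP plus [33P]-γ-ATP, pH 7.0 MnCl2 buffer, and 500 nM compound for 30 min at 30° C. Filter-bound radioactivity counted; inhibition computed relative to DMSO control.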

The target of the next experiment is T2, c-Met kinase (Homo sapiens, UniProt P08581).
T2 construct: recombinant N-terminal 6×His-tagged c-Met kinase domain construct expressed from baculovirus; 6xHis (N); made in house
T2 sequence (P08581 1078-1345 limits assumed): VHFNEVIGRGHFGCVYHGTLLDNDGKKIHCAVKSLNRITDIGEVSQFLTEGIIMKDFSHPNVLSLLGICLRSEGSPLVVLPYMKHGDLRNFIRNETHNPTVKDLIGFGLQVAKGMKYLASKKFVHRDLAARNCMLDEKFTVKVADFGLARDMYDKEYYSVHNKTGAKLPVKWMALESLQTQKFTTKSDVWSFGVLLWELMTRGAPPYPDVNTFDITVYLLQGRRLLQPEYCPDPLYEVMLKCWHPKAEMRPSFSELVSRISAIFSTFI
Description: c-Met kinase assay (33P incorporation into Poly(Glu-Tyr)). The settings on record: 500 nM test compound. A digest of the protocol:
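Recombinant N-terminal 6×His-tagged c-Met kinase domain (baculovirus-expressed, 5 ng) acted on Poly(Glu-Tyr) 4:1 with 100 μM ATP plus [33P]-γ-ATP in MOPS pH 7.0 buffer, 30 min at 30° C. Compound was at 500 nM. Filter-retained radioactivity was compared with the DMSO control to give percent inhibition.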

The target of the next experiment is T3, Aurora B kinase (Homo sapiens, UniProt Q96GD4).
T3 construct: purchased Cell signaling
T3 sequence (Q96GD4 whole entry): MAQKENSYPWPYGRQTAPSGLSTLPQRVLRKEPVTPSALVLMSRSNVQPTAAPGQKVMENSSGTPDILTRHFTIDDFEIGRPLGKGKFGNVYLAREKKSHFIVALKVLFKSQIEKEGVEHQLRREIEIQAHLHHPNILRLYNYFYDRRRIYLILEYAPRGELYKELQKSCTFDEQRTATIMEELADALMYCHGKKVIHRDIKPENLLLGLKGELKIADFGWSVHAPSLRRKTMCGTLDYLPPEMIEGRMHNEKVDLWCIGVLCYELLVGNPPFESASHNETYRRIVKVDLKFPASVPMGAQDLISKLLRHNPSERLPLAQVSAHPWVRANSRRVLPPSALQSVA
Description: Aurora B kinase assay ([γ-33P]ATP, CHOCKtide substrate). As to conditions: for inhibition at 1 µM: 1.0 μM test compound. The gist of the method:
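Recombinant Aurora A (1 ng) or Aurora B (2.5 ng) incubated with test compound, CHOCKtide (1 μg) and [γ-33P]ATP/ATP at 10 μM (Aurora A) or 40 μM (Aurora B), 30 min at 33 °C. Stopped with phosphoric acid; filter-bound 33P counted; IC50 = half-maximal inhibition.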

Another experiment deals with T4, Flt3 kinase (Homo sapiens, UniProt P36888).
T4 construct: recombinant N-terminal 6×His-tagged Flt3 kinase domain construct expressed from baculovirus; 6xHis (N); made in house
T4 sequence (P36888 610-943 limits assumed): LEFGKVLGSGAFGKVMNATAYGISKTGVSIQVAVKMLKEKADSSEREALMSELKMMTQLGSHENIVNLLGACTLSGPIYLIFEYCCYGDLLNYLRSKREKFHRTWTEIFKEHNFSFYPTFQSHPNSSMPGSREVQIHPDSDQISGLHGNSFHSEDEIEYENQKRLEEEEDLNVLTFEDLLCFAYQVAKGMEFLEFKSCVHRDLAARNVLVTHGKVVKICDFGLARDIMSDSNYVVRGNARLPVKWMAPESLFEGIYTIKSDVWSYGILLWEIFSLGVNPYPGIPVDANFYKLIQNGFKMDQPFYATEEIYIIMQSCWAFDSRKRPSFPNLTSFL
The experiment in a line: Flt3 kinase assay (33P incorporation into Poly(Glu-Tyr)). As to conditions: 100 nM test compound; read-out: Inhibition at 100 nM (%) Flt-3. The gist of the method: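 Baculovirus-expressed His-tagged Flt3 kinase domain (5 ng) with Poly(Glu-Tyr) 4:1 substrate, 100 μM ATP plus [33P]-γ-ATP, in MOPS pH 7.0 buffer, 30 min at 30 °C. Compound tested at a single 100 nM concentration; filter-bound radioactivity counted and percent inhibition calculated relative to DMSO control.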

T1 sequence (P09619 600-962 limits assumed): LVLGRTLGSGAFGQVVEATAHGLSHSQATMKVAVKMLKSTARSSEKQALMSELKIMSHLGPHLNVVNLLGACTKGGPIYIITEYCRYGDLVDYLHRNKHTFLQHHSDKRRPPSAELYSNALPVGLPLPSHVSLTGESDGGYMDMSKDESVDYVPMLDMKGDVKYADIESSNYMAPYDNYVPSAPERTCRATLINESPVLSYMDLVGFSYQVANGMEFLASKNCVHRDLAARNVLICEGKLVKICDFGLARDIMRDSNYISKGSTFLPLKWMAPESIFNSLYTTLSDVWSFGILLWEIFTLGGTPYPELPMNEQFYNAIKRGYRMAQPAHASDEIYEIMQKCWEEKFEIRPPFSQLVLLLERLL

On to `COc1cc(-c2ccc3c(c2)NC(=O)/C3=C\c2[nH]c3c(c2CCC(=O)O)C(=O)CCC3)ccc1O` [DCB-70082, (Z)-6-(4-hydroxy-3-methoxyphenyl)-3-((3-carboxyethyl-4-oxo-4,5,6,7-tetrahydro-1H-indol-2-yl)methylene)indolin-2-one], for which the inhibition at 0.5 µM was found to be 41.4% against PDGFR-β kinase and 27.3% against c-Met kinase. This compound returned an IC50 at Aurora B kinase of 2240 nM. Further, the inhibition at 1 µM at Aurora B kinase was 47.1%. Also, the inhibition at 0.1 µM at Flt3 kinase amounted to 35.1%.
As for `CCOC(=O)CCc1c(C=C2C(=S)Nc3ccccc32)[nH]c2c1C(=O)CCC2` [DCB-70083, 3-((3-(3-ethoxy-3-oxopropyl)-4-oxo-4,5,6,7-tetrahydro-1H-indol-2-yl)methylene)indolin-2-thione], the inhibition at 0.5 µM on PDGFR-β kinase worked out at 11.6%; against c-Met kinase it was 29.8%. Further, the inhibition at 1 µM at Aurora B kinase was determined as 12.8%. In addition, on Flt3 kinase, the inhibition at 0.1 µM is 16%.
Turning to `O=C(O)CCc1c(C=C2C(=S)Nc3ccccc32)[nH]c2c1C(=O)CCC2` [DCB-70084, 3-((3-carboxyethyl-4-oxo-4,5,6,7-tetrahydro-1H-indol-2-yl)methylene)indolin-2-thione], the inhibition at 0.5 µM against PDGFR-β kinase came to 6%; against c-Met kinase it was 11.5%. The inhibition at 1 µM at Aurora B kinase was found to be 17.9%. Moreover, the inhibition at 0.1 µM on Flt3 kinase was -2.6%.
The matching figures for `CCOC(=O)CCc1c(C=C2C(=S)Nc3cc(Br)ccc32)[nH]c2c1C(=O)CCC2` [DCB-70085, 6-bromo-3-((3-(3-ethoxy-3-oxopropyl)-4-oxo-4,5,6,7-tetrahydro-1H-indol-2-yl)methylene)indolin-2-thione]: 16.5%, 25.1%, 10.7% and 18.2%.
The corresponding values for `O=C(O)CCc1c(C=C2C(=S)Nc3cc(Br)ccc32)[nH]c2c1C(=O)CCC2` [DCB-70086, 6-bromo-3-((3-carboxyethyl-4-oxo-4,5,6,7-tetrahydro-1H-indol-2-yl)methylene)indolin-2-thione] are 12.8%, 21.6%, 17.8% and 0.5%.
As for `O=C(O)CCc1c(/C=C2\C(=O)Nc3ccc(S(=O)(=O)N4CCCC4)cc32)[nH]c2c1C(=O)CCC2` [DCB-70087, (Z)-5-(pyrrolidin-1-ylsulfonyl)-3-((3-carboxyethyl-4-oxo-4,5,6,7-tetrahydro-1H-indol-2-yl)methylene)indolin-2-one], the inhibition at 0.5 µM at PDGFR-β kinase turned out to be 7.8%. In addition, at c-Met kinase, the inhibition at 0.5 µM was determined as 20.9%. In addition, on Aurora B kinase, it took 441 nM to reach half-maximal inhibition (IC50) and the inhibition at 1 µM was determined as 66.2%. For the same compound, the inhibition at 0.1 µM at Flt3 kinase amounted to 1.4%.
Consider `O=C(O)CCc1c(/C=C2\C(=O)Nc3ccc(S(=O)(=O)N4CCOCC4)cc32)[nH]c2c1C(=O)CCC2` [DCB-70088, (Z)-5-morpholinosulfonyl-3-((3-carboxyethyl-4-oxo-4,5,6,7-tetrahydro-1H-indol-2-yl)methylene)indolin-2-one], for which, on PDGFR-β kinase, the inhibition at 0.5 µM stood at 1%. In addition, at c-Met kinase, the inhibition at 0.5 µM was found to be 25.3%. For the same compound, on Aurora B kinase, the IC50 was found to be 1870 nM and the inhibition at 1 µM was found to be 48.8%. The inhibition at 0.1 µM at Flt3 kinase is -2.1%.
For `CCOC(=O)CCc1c(/C=C2\C(=O)Nc3ccc(NC(=O)Nc4ccc(C)cc4)cc32)[nH]c2c1C(=O)CCC2` [DCB-70091, (Z)-5-(3-p-tolylureido)-3-((3-(3-ethoxy-3-oxopropyl)-4-oxo-4,5,6,7-tetrahydro-1H-indol-2-yl)methylene)indolin-2-one], the values for the inhibition at 0.5 µM on PDGFR-β kinase and at c-Met kinase were 13% and -0.5%, respectively. Moreover, the inhibition at 1 µM against Aurora B kinase is 10.8%. Besides, the inhibition at 0.1 µM at Flt3 kinase was found to be 11.1%.
`CCOC(=O)CCc1c(/C=C2\C(=O)Nc3ccc(NC(=O)Nc4ccc(OC)cc4)cc32)[nH]c2c1C(=O)CCC2` [DCB-70092, (Z)-5-(3-(4-methoxyphenyl)ureido)-3-((3-(3-ethoxy-3-oxopropyl)-4-oxo-4,5,6,7-tetrahydro-1H-indol-2-yl)methylene)indolin-2-one]: the inhibition at 0.5 µM at PDGFR-β kinase came out at 14.1%; at c-Met kinase it was 18.6%. Besides, the inhibition at 1 µM against Aurora B kinase stood at 9.9%. Further, the inhibition at 0.1 µM on Flt3 kinase was 22.5%.
Consider `Cc1ccc(NC(=O)Nc2ccc3c(c2)/C(=C/c2[nH]c4c(c2CCC(=O)O)C(=O)CCC4)C(=O)N3)cc1` [DCB-70093, (Z)-5-(3-p-tolylureido)-3-((3-carboxyethyl-4-oxo-4,5,6,7-tetrahydro-1H-indol-2-yl)methylene)indolin-2-one], for which the inhibition at 0.5 µM against PDGFR-β kinase was 40%; against c-Met kinase, 28.2%. Moreover, the inhibition at 1 µM on Aurora B kinase came to 14.7%. Moreover, at Flt3 kinase, the inhibition at 0.1 µM is 44.7%.
Take `COc1ccc(NC(=O)Nc2ccc3c(c2)/C(=C/c2[nH]c4c(c2CCC(=O)O)C(=O)CCC4)C(=O)N3)cc1` [DCB-70094, (Z)-5-(3-(4-methoxyphenyl)ureido)-3-((3-carboxyethyl-4-oxo-4,5,6,7-tetrahydro-1H-indol-2-yl)methylene)indolin-2-one]: the inhibition at 0.5 µM at PDGFR-β kinase came out at 48.5%; on c-Met kinase it was 18.9%. Besides, the inhibition at 1 µM at Aurora B kinase was 15.5%. For the same compound, at Flt3 kinase, the inhibition at 0.1 µM stood at 52.8%.
With `NS(=O)(=O)c1ccc2c(c1)/C(=C/c1[nH]c3c(c1CCC(=O)O)C(=O)CCC3)C(=O)N2` [DCB-70095, (Z)-5-sulfamoyl-3-((3-carboxyethyl-4-oxo-4,5,6,7-tetrahydro-1H-indol-2-yl)methylene)indolin-2-one], the inhibition at 0.5 µM was 36.2% on PDGFR-β kinase and 16% against c-Met kinase. The inhibition at 1 µM against Aurora B kinase was determined as 34.1%. Also, the inhibition at 0.1 µM on Flt3 kinase is 27.2%.
With `CCOC(=O)CCc1c(/C=C2\C(=O)Nc3ccc(NC(=O)c4ccccc4)cc32)[nH]c2c1C(=O)CCC2` [DCB-70096, (Z)-5-benazmido-3-((3-(3-ethoxy-3-oxopropyl)-4-oxo-4,5,6,7-tetrahydro-1H-indol-2-yl)methylene)indolin-2-one], the inhibition at 0.5 µM at PDGFR-β kinase stood at 14.9%; on c-Met kinase, 8.9%. On Aurora B kinase, the inhibition at 1 µM worked out at 15.1%. Moreover, at Flt3 kinase, the inhibition at 0.1 µM came out at 5.9%.
The matching figures for `O=C(O)CCc1c(/C=C2\C(=O)Nc3ccc(NC(=O)c4ccccc4)cc32)[nH]c2c1C(=O)CCC2` [DCB-70097, (Z)-5-benazmido-3-((3-carboxyethyl-4-oxo-4,5,6,7-tetrahydro-1H-indol-2-yl)methylene)indolin-2-one]: 21.5%, 14.4%, 14.2% and 2%.
On to `CCOC(=O)CCc1c(/C=C2\C(=O)Nc3cc(-c4ccc(F)cc4)ccc32)[nH]c2c1C(=O)CCC2` [DCB-70098, (Z)-6-(4-fluorophenyl)-3-((3-(3-ethoxy-3-oxopropyl)-4-oxo-4,5,6,7-tetrahydro-1H-indol-2-yl)methylene)indolin-2-one], for which the inhibition at 0.5 µM on PDGFR-β kinase was 39.3%; at c-Met kinase it was 27.2%. Also, the inhibition at 1 µM against Aurora B kinase worked out at 19.5%. Also, the inhibition at 0.1 µM at Flt3 kinase turned out to be 4.8%.
The corresponding values for `O=C(O)CCc1c(/C=C2\C(=O)Nc3cc(-c4ccc(F)cc4)ccc32)[nH]c2c1C(=O)CCC2` [DCB-70099, (Z)-6-(4-fluorophenyl)-3-((3-carboxyethyl-4-oxo-4,5,6,7-tetrahydro-1H-indol-2-yl)methylene)indolin-2-one] are 74.6%, 22.7%, 30% and 6.9%.

By inhibition is commonly meant the drop in the measured response relative to a control, in per cent. As usually defined, the IC50 is the midpoint of a concentration-inhibition curve. Read a low IC50 as inhibition by little substance.
